Common to all, as to format: cell-based, Human
Test [1] relates to HeLa UNC5B cells. Briefly: UNC5B-induced DNA fragmentation in HeLa UNC5B cells. To be noted: doxycycline-induced UNC5B; 18 hours. How it is done:
FIG. 2. CRISPR-Cas9 screening identifies genes and molecular pathways involved in UNC5B-induced cell death. Related to FIG. 1. (A): UNC5B induction upon treatment with doxycycline. Stable HCT116 cells, inducible for UNC5B, were treated with the indicated concentrations of doxycycline (Dox). 24 hours later, protein levels of FLAG-UNC5B and GAPDH, used as housekeeping gene, were assessed by western blot. (B): UNC5B induction upon treatment with doxycycline on Hela cells. Stable Hela cells inducible for UNC5B (HeLa UNC5B) were treated with the indicated doses of Dox for 18 hours. Protein levels of His-UNC5B and β-actin, used as housekeeping gene, were measured by western blot. (C,D,E): Induction of UNC5B triggers apoptotic cell death in HCT116 cells. Stable HCTT16 cells inducible for human UNC5B were treated with Dox. To assess cell death, propidium iodide (PI) incorporation was followed in real-time up to 36 hours, using an Incucyte Zoom technology (n=3, ** p<0.01, Kolmogorov Smirnov test) (C). Apoptosis was assessed 18 hours after Dox treatment by DNA fragmentation through flow cytometry ([…] (D) and by caspase-3 activity (E), quantified by fluorometric detection kit (n=3, *p<0.05, ** p<0.01, *** p<0.001, Ordinary two-way ANOVA). Values are given as means±SEM. (F): Caspase inhibition rescues apoptosis triggered by UNC5B. HeLa UNC5B cells were treated with Dox and the pan-caspase inhibitor […] (QVD). 18 hours later, DNA fragmentation was evaluated by flow cytometry (n=3, **** p<0.0001, ordinary two-way ANOVA with Šidák's multiple comparisons test). Values are given as means±SEM. […] The number of guides showing an increase in reads compared to control condition is shown for each gene.
FIG. 4. […] 18 hours after treatment, apoptosis was measured by DNA fragmentation (A) and caspase-3 activity (B) (n=3-4, **** p<0.0001, ordinary two-way ANOVA with Tukey's multiple comparisons test). […] Protein levels of Mcl-1, Bcl-2 and Bcl-XL, as well as of UNC5B and B-actin, used as housekeeping gene, were evaluated by western blot. […]

Test [2] concerns caspase-3. In words: UNC5B-induced caspase-3 activity in HeLa UNC5B cells. Particulars: doxycycline 2 μg/mL; 18 hours.
Method: Caspase-3 and -9 activity assays were performed as described previously (Paradisi et al., 2013; Paradisi et al., 2009). Briefly, HCT116 and HeLa cells were seeded and treated as for DNA fragmentation assay. Cells were then collected and caspase-3/caspase 9 activity assays were performed using the Caspase-3/Caspase-9 Fluorometric Assay Kit (BioVision, Milpitas, CA, USA), according to the manufacturer's instructions. Caspase activity (activity/min/mg of protein) was calculated from a 1 h kinetic cycle reading on a spectrofluorometer (405 nm/510 nm, Infinite F500, Tecan, Männedorf, Switzerland).
Test [3] relates to caspase-9. In words: UNC5B-induced caspase-9 activity in HeLa UNC5B cells. To be noted: Dox; 18 hours. Here is the method:
FIG. 5. UNC5B-mediated Mcl-1 degradation induces MOMP and caspase-9 activation. (A): UNC5B over-expression triggers Mitochondrial Outer Membrane Permeabilization (MOMP) in a COMMD2/CRL3 complex-dependent manner. Hela cells were transfected with scramble (siCTRL), COMMD2 (siCOMMD2-1) or RBX1 (siRBX1-1) siRNAs. 24 hours after transfection, cells were treated with Dox and after further 18 hours mitochondrial depolarization quantified by 5′,6,6′-tetrachloro-1,1′,3,3′-tetraethylbenzimi-dazolylcarbocyanine iodide (JC-1) dye staining, using NucleoCounter NC3000 (n=3, **** p<0.0001, ordinary two-way ANOVA with Tukey's multiple comparisons test). Values are given as means±SEM. (B,C,D): Apoptotic cell death induced by UNC5B over-expression requires caspase-9. HeLa UNC5B cells were transfected with scramble (siCTRL) or caspase-9 (siCASP9) siRNAs and 24 hours later treated with the indicated concentrations of Dox. Propidium iodide (PI)-positive cells were assessed in real-time up to 48 hours using Incucyte Zoom instrument (C) (n=[…], Kolmogorov-Smirnov test). DNA fragmentation was assessed by FACS analysis (D) and caspase-3 was measured using caspase-3 fluorometric kit (E), both 18 hours after treatment (n=[…], **** p<0.0001, ordinary two-way ANOVA with Šidák's multiple comparisons test). Values are given as means±SEM. […] HeLa UNC5B cells were treated with Dox and 18 hours later caspase-9 and -8 activities were assessed by fluorometric kit, using specific substrates (n=3, ^nsp>0.05, *p<0.05, Mann-Whitney test, one-tailed). […] 24 hours later, cells were treated with Dox and caspase-9 activity was measured by fluorometric kit (n=3, **** p<0.0001, ordinary two-way ANOVA with Tukey's multiple comparisons test). […] 18 hours after treatment, caspase-9 activity was assessed with the fluorometric kit (n=5, *p<0.05, ** p<0.01, *** p<0.001, **** p<0.0001, ordinary two-way ANOVA with Tukey's multiple comparisons test). […] Cells were then treated with Dox and Mcl-1 protein was evaluated by western blot. […]

In test [4] the test system is Mcl-1. Briefly: Mcl-1 protein levels by western blot in HeLa UNC5B cells. To be noted: endogenous Mcl-1; 2 μg/mL Dox; BTZ 1 μM, QVD 10 µM; 16 hours. Here is the method:
FIG. 4. UNC5B triggers proteasomal degradation of Mcl-1. (A,B): UNC5B-induced apoptosis requires proteasome activity. Stable Hela cells inducible for UNC5B (HeLa UNC5B) were treated with doxycycline (Dox) at 2 μg/mL, in combination with the indicated doses of the proteasome inhibitors MG132 and bortezomib (BTZ). 18 hours after treatment, apoptosis was measured by DNA fragmentation (A) and caspase-3 activity (B) (n=3-4, **** p<0.0001, ordinary two-way ANOVA with Tukey's multiple comparisons test). Values are given as means±SEM Treatment with proteasome inhibitors was sufficient to strongly reduce apoptosis induction upon UNC5B over-expression. (C): UNC5B triggers Mcl-1 degradation. HeLa UNC5B cells were treated with 2 μg/mL of Dox, in combination with bortezomib (BTZ, 1 μM) and the pan-caspase inhibitor Q-VD-OPh (QVD, 10 µM) inhibitors. 16 hours after treatment, cells were lysed by scraping and sonication in SDS-containing buffer. Protein levels of Mcl-1, Bcl-2 and Bcl-XL, as well as of UNC5B and B-actin, used as housekeeping gene, were evaluated by western blot. […] UNC5B over-expression specifically promoted Mcl-1 protein decrease. […] (D): Mcl-1 degradation induced by UNC5B requires COMMD2/CRL3 complex. HeLa UNC5B cells were transfected with scramble (siCTRL), COMMD2 (siCOMMD2) or RBX1 (siRBX1) siRNAs. […] Protein levels of Mcl-1, UNC5B and Ku80, used as housekeeping protein, were evaluated by western blot. […] Stable HeLa UNC5B cells, constitutively expressing Mcl-1 or empty vector, were treated with doxycycline and apoptosis was evaluated 18 hours later by DNA fragmentation (n=3, ^nsp>0.05, ordinary two-way ANOVA with Sidak's multiple comparisons test). […] Stable HeLa UNC5B cells, constitutively expressing Mcl-1, Bcl-2 or Bcl-XL were treated with Dox and protein levels were evaluated as described in (C). […] 18 hours later, protein levels of Mcl-1, UNC5B and β-actin, used as housekeeping gene, were evaluated by western blot. […] Cells were harvested at the indicated times after CHX treatment, and protein levels were assessed by western blot. […]
In general terms: A western blot detects proteins with antibodies after separation by electrophoresis.

Residues, ends and D or L forms follow the SMILES beside them. *: point of attachment. Cbz = O=C(OCc1ccccc1)*

Regarding `CC(C)C[C@@H](C=O)NC(=O)[C@H](CC(C)C)NC(=O)[C@H](CC(C)C)NC(=O)OCc1ccccc1` [MG132] (Cbz-Leu-Leu-Leu-aldehyde), the “UNC5B-induced apoptosis (DNA fragmentation)” value in test [1] is reported as “suppressed”. For the same compound, in test [2], the “UNC5B-induced caspase-3 activation” value is given as “suppressed”. The “UNC5B-induced caspase-9 activation” value in test [3] is given as “sufficient to prevent UNC5B-induced caspase-9 activation”.

On to `CC(C)[C@H](NC(=O)c1ccc2ccccc2n1)C(=O)N[C@@H](CC(=O)O)C(=O)COc1c(F)cccc1F` [Q-VD-OPh], for which the “UNC5B-induced apoptosis (DNA fragmentation)” value in test [1] is on record as “completely prevented apoptosis induction”. Moreover, in test [4], the “Mcl-1 protein levels / degradation triggered by UNC5B” value is recorded as “not sufficient to prevent Mcl-1 degradation”.

(Values after patent publication US20250215071A1, “Novel Mcl-1 inhibitor and combination of Mcl-1 and a BH3 mimetic, such as a Bcl-2 inhibitor” (NETRIS PHARMA, priority 2022, published 2025).)
